{
  "source": "patent US10385400B2",
  "about": "“Methods and kits for monitoring response to radiation therapies in cancer” (RNA Diagnostics Inc., priority 2012, dated 2019)",
  "key": {"[1]": {"test_system": "A2780 cells", "assay": "A2780 cells treated with increasing doses of Epirubicin with and without 10 Gy radiation (RIN, RDI, RNA concentration)", "type": "cell-based", "conditions": "with 10 Gy radiation, 96 h post-radiation", "method": "A2780 cells were treated with increasing doses of Epirubicin with and without 10 Gy radiation.A2780 cells were plated into 6 cm plates in 4 ml of RPMI culture medium. The plates were placed in the incubator and the cells were allowed to adhere overnight. The next day, the medium was removed from all plates and new media containing the appropriate epirubicin concentration (1 pM, 5 pM, 20 nM, 50 nM, and 100 nM) was added to the plates. Cells were pre-treated for 24 h with epirubicin prior to receiving radiation treatment. The following day (24 h post epirubicin drug-treatment), the cells were given 10 Gy of x-ray radiation treatment (300 kV, 9 mA) in approximately 4.3 min of x-ray exposure using a RS320 Irradiation System (Gulmay Medical) The cells were returned to the cell culture incubator, and RNA was extracted from the cells 96 h post-radiation treatment (which corresponds to 120 h post-epirubicin treatment)."}, "[2]": {"test_system": "MCF-7 cells", "assay": "MCF-7 cells treated with increasing doses of Epirubicin with and without 10 Gy radiation (RIN, RDI, RNA concentration)", "type": "cell-based", "method": "FIG. 9: Graphs of MCF-7 cells were treated with increasing doses of Epirubicin with and without 10 Gy radiation. A) RIN value vs. Epirubicin; B) RDI value vs. Epirubicin; C) RNA concentration vs. Epirubicin Dose."}, "[3]": {"test_system": "metastatic breast cancer", "conditions": "cited from earlier work"}, "[4]": {"test_system": "breast cancer, T1c-T3 N0-N1 disease", "conditions": "preoperative AC alone versus AC with addition of docetaxel; cited from earlier work"}, "[5]": {"test_system": "A2780 cells", "assay": "A2780 cells treated with 5 nM Docetaxel, 10 Gy radiation or both for 72 or 96 hours (RIN, RDI)", "type": "cell-based", "conditions": "n=3", "method": "In another experiment, A2780 cells were treated with 5 nM Docetaxel, 10 Gy Radiation and 10 Gy Radiation+5 nM Docetaxel for 72 hours or 96 hours."}, "[6]": {"test_system": "A2780 ovarian tumour cells", "assay": "RNA concentration and RIN in A2780 cells after radiation with or without docetaxel", "type": "cell-based", "method": "Experiments were conducted to assess whether radiation with or without docetaxel treatment could induce changes in cellular RNA concentration and/or RIN values in A2780 ovarian tumour cells. […] In contrast under the tested conditions, radiation doses up to 5 Gray had no effect on cellular RNA integrity, as no changes in RIN values were observed compared to samples prior to radiation treatment (FIG. 5B). If cells were pre-incubated for 24 hours with 0.1 μM docetaxel prior to 10 Gray radiation treatment, the cellular RIN value decreased to 75% of pre-treatment values. There were additional decreases in RIN when radiation and chemotherapy were used together concurrently. […] Moreover, the combination of both radiation and docetaxel treatment induces even stronger reductions in both cellular RNA content and RNA integrity. These observations are consistent with those described above for tumours of patients with locally advanced breast cancer, in particular for the combined therapy post-treatment, where RNA concentration fell dramatically in response to FEC-D chemotherapy with concurrent radiation therapy and where differences between between responding patients (pCR) and non-reponding patients (no pCR) appeared to be observed post-treatment."}, "[7]": {"test_system": "breast cancer, T3, T4 or TxN2 disease", "conditions": "cited from earlier work"}, "[8]": {"test_system": "anthracycline-resistant metastatic breast cancer", "conditions": "cited from earlier work"}, "[9]": {"test_system": "MCF-7 breast tumour cells", "assay": "RNA concentration and RIN in MCF-7 cells after radiation with or without docetaxel", "type": "cell-based", "method": "The effects of the above treatments on MCF-7 (ER+, HER2−) cells (FIGS. 7A and 7B) were examined, findings were similar to those of SKBR3 cells, with 4% and 73% reductions in RNA levels observed for the 10 Gray and 10 Gray/0.1 μM docetaxel treatments, respectively. […] Moreover, only a 4% reduction in cellular RIN values were observed when cells were pre-treated with 0.1 μM docetaxel prior to the 10 Gray radiation."}, "[10]": {"test_system": "SKBR3 breast tumour cells", "assay": "RNA concentration and RIN in SKBR3 cells after radiation with or without docetaxel", "type": "cell-based", "method": "It was then examined whether similar observations could be observed in vitro for specific breast tumour cell lines. […] If cells were pre-treated with 0.1 μM docetaxel prior to 10 Gray radiation, a 5-fold reduction in cellular RNA concentration was observed (19% of untreated cells). RNA concentration decreases 2 fold (or more) in BT-20, A2780 and MB-468 cells with radiation only. […] Concurrent docetaxel treatment with radiation therapy dramatically reduces cellular RNA content, consistent with the observed findings for patients with locally advanced breast cancer treated with FEC-D chemotherapy followed by radiation treatment. Similar findings were observed when the effects of the above treatments on RIN values were examined in SKBR3 (HER2+, ER−) cells (FIG. 6B)."}, "[11]": {"test_system": "stage IIB to III locally advanced breast cancer", "conditions": "cited from earlier work"}, "[12]": {"test_system": "locally advanced breast cancer", "conditions": "paclitaxel 175 mg/m^2 and 5FU with 50.4 Gy, then 3 cycles of FEC, then surgery; 23 patients; cited from earlier work"}, "[13]": {"conditions": "35 mg/m^2 weekly for 3 of every 4 weeks"}, "[14]": {"conditions": "after 4 cycles of CVAP, 4 cycles of docetaxel versus 4 more cycles of CVAP, intention-to-treat"}, "[15]": {"conditions": "pre-treated with 0.1 μM docetaxel prior to 10 Gray radiation"}, "[16]": {"conditions": "paclitaxel 30 mg/m^2 twice weekly with radiation to 45 Gy, then surgery"}},
  "note": "Where two headings read alike, the source gives them in different places.",
  "data": [
    {"smiles": "COc1cccc2c1C(=O)c1c(O)c3c(c(O)c1C2=O)C[C@@](O)(C(=O)CO)C[C@@H]3O[C@H]1C[C@H](N)[C@@H](O)[C@H](C)O1", "note": "[Epirubicin]", "values": [
      {"measurement": "RIN value vs Epirubicin dose", "setting": "[1]; low doses of Epirubicin", "value": "loss in RIN value"},
      {"measurement": "RDI value vs Epirubicin dose", "setting": "[1]; low drug doses", "value": "RDI values increase"},
      {"measurement": "RNA concentration vs Epirubicin dose", "setting": "[1]; low drug doses", "value": "increased loss in RNA concentration"},
      {"measurement": "RIN value vs Epirubicin dose", "setting": "[2]; combined with 10 Gy radiation", "value": "loss in RIN value"},
      {"measurement": "RNA concentration vs Epirubicin dose", "setting": "[2]; increasing doses of Epirubicin", "value": "loss in RNA concentration"},
      {"measurement": "RDI value vs Epirubicin dose", "setting": "[2]; with radiation, up to 100 uM Epirubicin", "value": "increase in RDI value"}
    ]},
    {"smiles": "CC(=O)O[C@@]12CO[C@@H]1C[C@H](O)[C@@]1(C)C(=O)[C@H](O)C3=C(C)[C@@H](OC(=O)[C@H](O)[C@@H](NC(=O)OC(C)(C)C)c4ccccc4)C[C@@](O)([C@@H](OC(=O)c4ccccc4)[C@H]21)C3(C)C", "note": "[docetaxel]", "values": [
      {"measurement": "overall survival (OS)", "setting": "[3]; [13]", "value": 18.6, "unit": "months"},
      {"measurement": "progression-free survival", "setting": "[3]; [13]", "value": 5.5, "unit": "months"},
      {"measurement": "overall survival (OS)", "setting": "[3]; 100 mg/m^2 every 3 weeks", "value": 18.3, "unit": "months"},
      {"measurement": "progression-free survival", "setting": "[3]; 100 mg/m^2 every 3 weeks", "value": 5.7, "unit": "months"},
      {"measurement": "overall serious toxicity", "setting": "[3]; Q 3-week arm", "value": 88.1, "unit": "%"},
      {"measurement": "overall serious toxicity", "setting": "[3]; weekly arm", "value": 55.9, "unit": "%"},
      {"measurement": "clinical complete response (cCR)", "setting": "[4]", "value": 63.6, "unit": "%"},
      {"measurement": "pCR", "setting": "[4]", "value": 26.1, "unit": "%"},
      {"measurement": "proportion of patients with negative nodes", "setting": "[4]", "value": 58.2, "unit": "%"},
      {"measurement": "mean RDI value", "setting": "[5]; 10 Gy radiation + 5 nM Docetaxel compared with Docetaxel alone, 96 hr", "value": "increase in RDI value"},
      {"measurement": "mean RIN value", "setting": "[5]; 10 Gy radiation + 5 nM Docetaxel, 72 hr", "value": "increased loss in RIN value"},
      {"measurement": "effect of concurrent docetaxel on radiation-induced reduction of RNA content and integrity", "setting": "[6]; 0.1 μM docetaxel, 10 Gray", "value": "strongly augmented"},
      {"measurement": "cellular RIN value, % of pre-treatment values", "setting": "[6]; pre-incubated 24 hours with 0.1 μM docetaxel prior to 10 Gray radiation", "value": 75, "unit": "%"},
      {"measurement": "additional reduction of cellular RNA concentration", "setting": "[6]; pre-incubation with 0.1 μM docetaxel, 10 Gray radiation, versus radiation alone", "value": 6.5, "unit": "fold"},
      {"measurement": "DFS", "setting": "[7]; 38 months median follow-up", "value": 90, "unit": "%"},
      {"measurement": "OS", "setting": "[7]; 38 months median follow-up", "value": 97, "unit": "%"},
      {"measurement": "cCR", "setting": "[7]; [14]", "value": 94, "unit": "%"},
      {"measurement": "pCR", "setting": "[7]; [14]", "value": 31, "unit": "%"},
      {"measurement": "response rates", "setting": "[8]", "value": "up to 50%"},
      {"measurement": "effect of concurrent docetaxel on effect of radiation on RNA content and integrity", "setting": "[9]; 0.1 μM docetaxel, 10 Gray", "value": "only slightly augmented"},
      {"measurement": "reduction in RNA levels", "setting": "[9]; 10 Gray/0.1 μM docetaxel", "value": 73, "unit": "%"},
      {"measurement": "reduction in cellular RIN values", "setting": "[9]; [15]", "value": 4, "unit": "%"},
      {"measurement": "effect of concurrent docetaxel on effects of radiation on RNA content and RNA integrity", "setting": "[10]; 0.1 μM docetaxel, 10 Gray", "value": "strongly augmented"},
      {"measurement": "cellular RNA concentration, % of untreated cells", "setting": "[10]; [15]", "value": 19, "unit": "%"},
      {"measurement": "reduction in cellular RNA concentration", "setting": "[10]; [15]", "value": 5, "unit": "fold"},
      {"measurement": "reduction in cellular RIN values", "setting": "[10]; radiation, cells pre-treated with docetaxel", "value": 9, "unit": "%"}
    ]},
    {"smiles": "CC(=O)O[C@H]1C(=O)[C@@]2(C)[C@H]([C@H](OC(=O)c3ccccc3)[C@]3(O)C[C@H](OC(=O)[C@H](O)[C@@H](NC(=O)c4ccccc4)c4ccccc4)C(C)=C1C3(C)C)[C@]1(OC(C)=O)CO[C@@H]1C[C@@H]2O", "note": "[paclitaxel]", "values": [
      {"measurement": "patients achieving a pCR", "setting": "[11]; [16]", "value": "Sixteen"},
      {"measurement": "patients achieving a pPR", "setting": "[11]; [16]", "value": 18, "unit": "%"},
      {"measurement": "grade 4 leucopenia", "setting": "[11]; postoperative phase", "value": 10, "unit": "%"},
      {"measurement": "grade 4 toxicities", "setting": "[11]; preoperative chemoradiation phase, paclitaxel 30 mg/m^2 twice weekly with radiation to 45 Gy", "value": "No grade 4 toxicities were observed"},
      {"measurement": "clinical CR", "setting": "[12]", "value": 82.6, "unit": "%"},
      {"measurement": "overall 2-year survival", "setting": "[12]", "value": 80.7, "unit": "%"},
      {"measurement": "pCR", "setting": "[12]", "value": 52.2, "unit": "%"}
    ]}
  ]
}
